Common to all, as to type: in vivo
The subject of experiment [1] is lambsquarters (Chenopodium album). Description: Test E pre-/postemergence: lambsquarters. The following applies: Preemergence, scale 0 to 100. The text has this: (§1) Seeds of plant species selected from corn (Zea mays), soybean (Glycine max), velvetleaf (Abutilon theophrasti), lambsquarters (Chenopodium album), poinsettia, wild (wild poinsettia, Euphorbia heterophylla), pigweed, palmer (palmer pigweed, Amaranthus palmeri), waterhemp (common waterhemp, Amaranthus rudis), smartweed (ladysthumb smartweed, Polygonum persicaria), surinam grass (Brachiaria decumbens), crabgrass, large (large crabgrass, Digitaria sanguinalis), crabgrass, Brazil (Brazilian crabgrass, Digitaria horizontalis), panicum, fall (fall panicum, Panicum dichotomiflorum), foxtail, giant (giant foxtail, Setaria faberii), foxtail, green (green foxtail, Setaria viridis), goosegrass (Eleusine indica), johnsongrass (Sorghum halepense), ragweed (common ragweed, Ambrosia elation), barnyardgrass (Echinochloa crus-galli), sandbur (southern sandbur, Cenchrus echinatus), arrowleaf sida (Sida rhombifolia), ryegrass, Italian (Italian ryegrass, Lolium multiflorum), dayflower, (VA) (Virginia dayflower, Commelina virginica), field bindweed (Convolvulus arvensis), cocklebur (common cocklebur, Xanthium strumarium), morningglory (Ipomoea coccinea), nightshade (eastern black nightshade, Solanum ptycanthum), kochia (Kochia scoparia), nutsedge, yellow (yellow nutsedge, Cyperus esculentus) and beggarticks (hairy beggarticks, Bidens pilosa) were planted into a silt loam soil and treated preemergence with test chemicals formulated in a non-phytotoxic solvent mixture which included a surfactant. At the same time, plants selected from these crop and weed species were planted in pots containing a growing medium comprising spaghnum peat moss, vermiculite, wetting agent and starter nutrients and treated with postemergence applications of some of the test chemicals formulated in the same manner. Plants ranged in height from 2 to 18 cm for postemergence treatments (1- to 4-leaf stage).
(§2) Treated plants and controls were maintained in a greenhouse for 14 to 21 days, after which time all species were compared to controls and visually evaluated. Plant response ratings, summarized in Table E, are based on a scale of 0 to 100 where 0 is no effect and 100 is complete control. A dash (-) response means no test result.

Experiment [2] relates to crabgrass, large (large crabgrass, Digitaria sanguinalis). Description: Test E pre-/postemergence: crabgrass, large. Particulars: Preemergence, scale 0 to 100.
Source text: as §1, §2

Experiment [3] concerns ryegrass, Italian (Italian ryegrass, Lolium multiflorum). Description: Test E pre-/postemergence: ryegrass, Italian. The following applies: scale 0 to 100.
Source text: as §1, §2

In experiment [4] the test system is foxtail, giant (giant foxtail, Setaria faberii). Description: Test F pre-/postemergence: foxtail, giant. Particulars: Preemergence.
Source text: (§3) Seeds of plant species selected from corn (Zea mays), soybean (Glycine max), velvetleaf (Abutilon theophrasti), lambsquarters (Chenopodium album), poinsettia, wild (wild poinsettia, Euphorbia heterophylla), pigweed, palmer (palmer pigweed, Amaranthus palmeri), waterhemp (common waterhemp, Amaranthus rudis), surinam grass (Brachiaria decumbens), crabgrass, Brazil (Brazilian crabgrass, Digitaria horizontalis), panicum, fall (fall panicum Panicum dichotomiflorum), crabgrass, large (large crabgrass, Digitaria sanguinalis), foxtail, giant (giant foxtail, Setaria faberii), foxtail, green (green foxtail Setaria viridis), goosegrass (Eleusine indica), ragweed (common ragweed, Ambrosia elatior), barnyardgrass (Echinochloa crus-galli), sandbur (southern sandbur, Cenchrus echinatus), arrowleaf sida (Sida rhombifolia), ryegrass, Italian (Italian ryegrass, Lolium multiflorum), dayflower, VA (Virginia (VA) dayflower, Commelina virginica), field bindweed (Convolvulus arvensis), cocklebur (common cocklebur, Xanthium strumarium), morningglory (Ipomoea coccinea), nightshade (eastern black nightshade, Solanum ptycanthum), kochia (Kochia scoparia), nutsedge, yellow (yellow nutsedge, Cyperus esculentus), johnsongrass (Sorghum halepense), smartweed (ladysthumb smartweed, Polygonum persicaria), and beggarticks (hairy beggarticks, Bidens pilosa), were planted into a silt loam soil and treated preemergence with test chemicals formulated in a non-phytotoxic solvent mixture which included a surfactant. At the same time, plants selected from these crop and weed species and also pigweed (Amaranthus retroflexus), waterhemp_RES1 (ALS/Triazine resistant common waterhemp, Amaranthus rudis) and waterhemp_RES2 (ALS/HPPD resistant common waterhemp, Amaranthus rudis) were planted in pots containing a planting medium comprising spaghnum peat moss, vermiculite, wetting agent and starter nutrients treated with postemergence applications of some of the test chemicals formulated in the same manner. Plants ranged in height from 2 to 18 cm for postemergence treatments (1- to 4-leaf stage).
as §2

Experiment [5] has as its system foxtail, green (green foxtail Setaria viridis). Description: Test F pre-/postemergence: foxtail, green. Particulars: Preemergence.
Source text: as §3, §2

Experiment [6] has as its system field bindweed (Convolvulus arvensis). The experiment is described as follows: Test F pre-/postemergence: field bindweed.
Source text: as §3, §2

Setting [7] is: 16 g ai/ha, scale 0 to 100 (0 no effect, 100 complete control).
Setting [8] is: 31 g ai/ha, scale 0 to 100 (0 no effect, 100 complete control).
Setting [9] is: Preemergence, 16 g ai/ha, scale 0 to 100 (0 no effect, 100 complete control).
Setting [10] is: Preemergence, 31 g ai/ha, scale 0 to 100 (0 no effect, 100 complete control).
The mark [11] stands for this setting: Preemergence, 62 g ai/ha, scale 0 to 100.
The mark [12] stands for this setting: Preemergence, 125 g ai/ha, scale 0 to 100.
The mark [13] stands for this setting: Postemergence, 8 g ai/ha, scale 0 to 100.
Setting [14] is: Postemergence, 16 g ai/ha, scale 0 to 100.
[15] abbreviates: Postemergence, 62 g ai/ha, scale 0 to 100.
Setting [16] is: 4 g ai/ha, scale 0 to 100, 0 no effect, 100 complete control.
Where [17] appears, read: 8 g ai/ha, scale 0 to 100, 0 no effect, 100 complete control.

The text below walks through data of US9302999B2, “Substituted triazoles as herbicides” (E. I. DU PONT DE NEMOURS AND COMPANY, priority 2012, dated 2016).

For `Cc1nn(-c2ccc(F)cc2)nc1Cc1ccnc(C(F)(F)F)c1` [Compound 16, 4-[[2-(4-fluorophenyl)-5-methyl-2H-1,2,3-triazol-4-yl]methyl]-2-(trifluoromethyl)pyridine], the “Plant response rating: Lambsquarters” value in experiment [1] (8 g ai/ha) was determined as 0; in experiment [1] (16 g ai/ha) it was 0; in experiment [1] (31 g ai/ha), 75; in experiment [1] (62 g ai/ha) it was 98; in experiment [1] (125 g ai/ha) it was 98. In addition, the “Plant response rating: Crabgrass, Large” value was 0 in experiment [2] (8 g ai/ha); 5 in experiment [2] (16 g ai/ha); 5 in experiment [2] (31 g ai/ha); 90 in experiment [2] (62 g ai/ha); 90 in experiment [2] (125 g ai/ha). Moreover, the “Plant response rating: Ryegrass, Italian” value in experiment [3] (Preemergence, 8 g ai/ha) was determined as 0; in experiment [3] (Preemergence, 16 g ai/ha), 0; in experiment [3] (Preemergence, 31 g ai/ha), 30; in experiment [3] (Preemergence, 62 g ai/ha), 50; in experiment [3] (Preemergence, 125 g ai/ha) it was 98.
For `Cc1nn(-c2ccc(C(F)(F)F)cc2)nc1Cc1ccnc(C(F)(F)F)c1` [Compound 47, 4-[[5-methyl-2-[4-(trifluoromethyl)phenyl]-2H-1,2,3-triazol-4-yl]methyl]-2-(trifluoromethyl)pyridine], the “Plant response rating: Lambsquarters” value is on record as 95 in experiment [1] (16 g ai/ha); 95 in experiment [1] (31 g ai/ha); 98 in experiment [1] (62 g ai/ha); 100 in experiment [1] (125 g ai/ha); 100 in experiment [1] (250 g ai/ha). Besides, the “Plant response rating: Crabgrass, Large” value is 20 in experiment [2] (16 g ai/ha); 75 in experiment [2] (31 g ai/ha); 100 in experiment [2] (62 g ai/ha); 100 in experiment [2] (125 g ai/ha); 100 in experiment [2] (250 g ai/ha). Also, the “Plant response rating: Ryegrass, Italian” value in experiment [3] (Postemergence, 250 g ai/ha) is on record as 80; in experiment [3] (Postemergence, 16 g ai/ha), 10; in experiment [3] (Postemergence, 31 g ai/ha) it was 20; in experiment [3] (Postemergence, 62 g ai/ha), 30; in experiment [3] (Postemergence, 125 g ai/ha) it was 50; in experiment [3] (Preemergence, 16 g ai/ha), 20. The “Plant response rating: Ryegrass, Italian” value is on record as 40 in experiment [3] (Preemergence, 31 g ai/ha); 70 in experiment [3] (Preemergence, 62 g ai/ha); 100 in experiment [3] (Preemergence, 125 g ai/ha); 100 in experiment [3] (Preemergence, 250 g ai/ha).
`Cc1nn(-c2ccc(F)cc2)nc1Oc1ccnc(C(F)(F)F)c1` [Compound 129, 4-[[2-(4-fluorophenyl)-5-methyl-2H-1,2,3-triazol-4-yl]oxy]-2-(trifluoromethyl)pyridine]: the “Plant response rating: Lambsquarters” value in experiment [1] (8 g ai/ha) amounted to 0; in experiment [1] (16 g ai/ha), 0; in experiment [1] (31 g ai/ha), 0; in experiment [1] (62 g ai/ha), 75; in experiment [1] (125 g ai/ha) it was 98. The “Plant response rating: Crabgrass, Large” value in experiment [2] (8 g ai/ha) amounted to 0; in experiment [2] (16 g ai/ha), 10; in experiment [2] (31 g ai/ha), 80; in experiment [2] (62 g ai/ha), 100; in experiment [2] (125 g ai/ha), 100. For the same compound, the “Plant response rating: Ryegrass, Italian” value in experiment [3] (Preemergence, 8 g ai/ha) is reported as 0; in experiment [3] (Preemergence, 16 g ai/ha) it was 25; in experiment [3] (Preemergence, 31 g ai/ha), 25; in experiment [3] (Preemergence, 62 g ai/ha) it was 40; in experiment [3] (Preemergence, 125 g ai/ha) it was 60.
As to `Fc1ccc(-n2nc(Cc3ccnc(C(F)(F)F)c3)c(OCC(F)(F)F)n2)cc1` [Compound 142], the “Plant response rating, Foxtail, Giant” value in experiment [4] (setting [7]) came to 35; in experiment [4] (setting [8]), 75; in experiment [4] (62 g ai/ha, scale 0 to 100), 100; in experiment [4] (125 g ai/ha, scale 0 to 100) it was 100. For the same compound, the “Plant response rating, Foxtail, Green” value in experiment [5] (setting [7]) is recorded as 20; in experiment [5] (setting [8]), 75; in experiment [5] (62 g ai/ha, scale 0 to 100), 98; in experiment [5] (125 g ai/ha, scale 0 to 100) it was 100. Besides, the “Plant response rating, Field Bindweed” value is listed as 20 in experiment [6] (setting [9]), 50 in experiment [6] (setting [10]), 75 in experiment [6] (setting [11]) and 98 in experiment [6] (setting [12]).
For `Cc1nn(-c2ccc(F)c(F)c2)nc1Oc1ccnc(C(F)(F)F)c1` [Compound 145], the “Plant response rating, Field Bindweed” value in experiment [6] (setting [13]) was determined as 50; in experiment [6] (setting [14]), 60; in experiment [6] (setting [15]), 70; in experiment [6] (Postemergence, 125 g ai/ha, scale 0 to 100), 75.
`CCCc1nn(-c2ccc(F)cc2)nc1Cc1ccnc(C(F)(F)F)c1` [Compound 153]: the “Plant response rating, Foxtail, Giant” value in experiment [4] (setting [7]) worked out at 40; in experiment [4] (setting [8]), 85; in experiment [4] (62 g ai/ha, scale 0 to 100), 100; in experiment [4] (125 g ai/ha, scale 0 to 100), 100; in experiment [4] (250 g ai/ha, scale 0 to 100) it was 100. The “Plant response rating, Foxtail, Green” value in experiment [5] (setting [7]) worked out at 50; in experiment [5] (setting [8]), 75; in experiment [5] (62 g ai/ha, scale 0 to 100) it was 100; in experiment [5] (125 g ai/ha, scale 0 to 100), 100; in experiment [5] (250 g ai/ha, scale 0 to 100) it was 100. Moreover, the “Plant response rating, Field Bindweed” value in experiment [6] (setting [9]) stood at 5; in experiment [6] (setting [10]), 65; in experiment [6] (setting [11]), 65; in experiment [6] (setting [12]), 100; in experiment [6] (Preemergence, 250 g ai/ha, scale 0 to 100), 100.
Regarding `Cc1nn(-c2ccc(C(F)(F)F)c(F)c2)nc1Cc1ccnc(C(F)(F)F)c1` [Compound 162], the “Plant response rating, Foxtail, Giant” value in experiment [4] (setting [16]) is 0; in experiment [4] (setting [17]), 20; in experiment [4] (setting [7]), 70; in experiment [4] (setting [8]) it was 100; in experiment [4] (62 g ai/ha, scale 0 to 100), 100. The “Plant response rating, Foxtail, Green” value in experiment [5] (setting [16]) is given as 0; in experiment [5] (setting [17]), 15; in experiment [5] (setting [7]), 80; in experiment [5] (setting [8]), 100; in experiment [5] (62 g ai/ha, scale 0 to 100), 100. The “Plant response rating, Field Bindweed” value in experiment [6] (Postemergence, 4 g ai/ha, scale 0 to 100) was 20; in experiment [6] (setting [13]) it was 20; in experiment [6] (setting [14]), 20; in experiment [6] (Postemergence, 31 g ai/ha, scale 0 to 100) it was 30; in experiment [6] (setting [15]) it was 50; in experiment [6] (Preemergence, 4 g ai/ha, scale 0 to 100, 0 no effect, 100 complete control), 0. The “Plant response rating, Field Bindweed” value worked out at 0 in experiment [6] (Preemergence, 8 g ai/ha, scale 0 to 100, 0 no effect, 100 complete control); 5 in experiment [6] (setting [9]); 5 in experiment [6] (setting [10]); 5 in experiment [6] (setting [11]).
